From ChEMBL document CHEMBL1201862, “PubChem BioAssay data set” (2004)
Activity calls are given as the source filed them. Cut-off read from the data, not from the text of the source, for most assays here: actives have a measured EC50 and inactives only a lower limit.

Legend:
[1] = Counterscreen for IDE inhibitors: Luminescence-based cell-based high throughput dose response assay to identify compounds that are cytotoxic to HEK cells. [Related pubchem assays: 434962 (Primary screen (IDE inhibitors in singlicate)), 449730 (Counterscreen (Cytotoxicity in triplicate)), 435028 (Confirmation (IDE inhibitors in triplicate)) …; assay type: functional; settings: HEK293
Insulin-degrading enzyme = molecular target: T1, Insulin-degrading enzyme (Homo sapiens, UniProt P14735); experiment: Dose Response: Fluorescence polarization-based cell-based high throughput dose response assay for inhibitors of insulin-degrading enzyme (IDE). [Related pubchem assays: 434962 (Primary screen (IDE inhibitors in singlicate)), 449730 (Counterscreen (Cytotoxicity in triplicate)), 435028 (Confirmation (IDE inhibitors in triplicate)), 434984 (Summary …; assay type: functional
T1 sequence (P14735 whole entry): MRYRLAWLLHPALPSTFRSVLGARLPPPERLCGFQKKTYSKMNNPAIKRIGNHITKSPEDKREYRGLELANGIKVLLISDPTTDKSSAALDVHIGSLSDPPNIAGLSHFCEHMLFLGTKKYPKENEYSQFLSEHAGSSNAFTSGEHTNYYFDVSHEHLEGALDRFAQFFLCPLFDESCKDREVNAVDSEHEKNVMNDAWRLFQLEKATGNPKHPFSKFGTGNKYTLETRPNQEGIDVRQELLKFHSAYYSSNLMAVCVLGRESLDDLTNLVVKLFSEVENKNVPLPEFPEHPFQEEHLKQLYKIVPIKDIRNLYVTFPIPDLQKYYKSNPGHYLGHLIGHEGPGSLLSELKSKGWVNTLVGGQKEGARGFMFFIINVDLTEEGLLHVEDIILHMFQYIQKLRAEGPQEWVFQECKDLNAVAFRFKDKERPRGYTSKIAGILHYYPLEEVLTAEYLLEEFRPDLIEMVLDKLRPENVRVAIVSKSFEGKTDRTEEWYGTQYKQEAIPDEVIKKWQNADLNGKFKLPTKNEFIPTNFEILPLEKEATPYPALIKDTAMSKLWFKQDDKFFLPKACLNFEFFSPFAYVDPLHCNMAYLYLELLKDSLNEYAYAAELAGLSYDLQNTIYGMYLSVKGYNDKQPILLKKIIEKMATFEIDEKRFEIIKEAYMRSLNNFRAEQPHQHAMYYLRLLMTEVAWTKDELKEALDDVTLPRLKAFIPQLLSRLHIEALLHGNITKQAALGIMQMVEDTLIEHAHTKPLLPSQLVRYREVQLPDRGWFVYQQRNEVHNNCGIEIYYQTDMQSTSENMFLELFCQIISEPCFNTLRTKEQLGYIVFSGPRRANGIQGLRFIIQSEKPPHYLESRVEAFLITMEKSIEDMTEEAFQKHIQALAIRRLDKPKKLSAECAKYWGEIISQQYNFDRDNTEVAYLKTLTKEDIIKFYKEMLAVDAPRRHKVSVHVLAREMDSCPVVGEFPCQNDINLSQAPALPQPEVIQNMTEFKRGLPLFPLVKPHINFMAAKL

[2] = NIH-3T3 fibroblast cytotoxicity, dose response, cytotoxicity control, cell-based, fluorescence, Alamar Blue, secondary assay (AID 2327); assay type: functional;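 note: NIH-3T3 mouse fibroblasts cultured with fluconazole at 8 µg/mL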
[3] = tested on: Streptococcus sp. 'group A'; experiment: Streptococcus pyogenes SK(-)GAS viability under kanamycin – luminescence, BacTiterGlo, confirmation, counter-screen for streptokinase expression inhibitor project, dose response (AID 1900); assay type: functional, organism-based
[4] = Luminescence Cell-Based Dose Response HTS to Identify Inhibitors of 5'UTR Stem-Loop Driven Prion Protein mRNA Translation in H4 Neuroglioblastoma Cells. [Related pubchem assays: 1827 (Project Summary), 1813 (Primary HTS)]; assay type: functional
[5] = alpha-synuclein stem-loop luciferase translation blockers – H4 neuroglioma cells, luminescence, confirmation (AID 1988); assay type: functional, cell-based
Streptokinase A = molecular target: T2, Streptokinase A (Streptococcus pyogenes serotype M1, UniProt P10520); experiment: viability-normalized secreted streptokinase activity reduction – plasminogen activation absorbance, OD405, dose response (AID 1914); assay type: functional, Streptococcus pyogenes M1 GAS;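 note: secreted streptokinase activity via plasminogen activation per viability signal from cell pellet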
T2 sequence (P10520 whole entry): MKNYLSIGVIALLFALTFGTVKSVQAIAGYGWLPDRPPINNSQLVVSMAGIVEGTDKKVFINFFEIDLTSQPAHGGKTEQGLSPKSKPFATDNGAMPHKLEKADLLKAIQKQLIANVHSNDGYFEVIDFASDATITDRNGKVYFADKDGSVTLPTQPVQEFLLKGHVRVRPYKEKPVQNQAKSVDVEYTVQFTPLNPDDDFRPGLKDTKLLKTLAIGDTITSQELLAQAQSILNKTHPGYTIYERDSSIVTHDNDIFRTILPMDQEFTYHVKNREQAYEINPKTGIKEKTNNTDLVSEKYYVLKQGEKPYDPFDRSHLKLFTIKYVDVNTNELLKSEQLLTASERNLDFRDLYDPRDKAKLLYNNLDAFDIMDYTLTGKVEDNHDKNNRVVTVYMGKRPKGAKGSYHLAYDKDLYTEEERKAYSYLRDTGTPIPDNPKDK

[6] = fluconazole-exposed Candida albicans growth modulators – fluorescence, retest, confirmation (AID 2467); assay type: functional, cell-based
[7] = Luminescence-based counterscreen assay for KLF5 inhibitors: dose response cell-based high throughput screening assay to identify cytotoxic compounds using the IEC-6 intestinal epithelial cell line. [Related pubchem assays: 1700 (Primary screen.), 1834 (Confirmation screen.), 1858 (Summary AID.), 1905 (Counterscreen.)]; assay type: functional
[8] = viability of PTEN-deleted HCT116 cells – cell-based, HCT116 PTEN knockout, dose response (AID 1047); assay type: functional;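 note: HCT116 colon tumor cells with PTEN knocked out; cells exposed to compound for 60 hours before readout; potency for loss of cell viability measured by luminescence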
[9] = viability of HCT116 lacking mutant beta-catenin – cell-based, human colon tumor, dose response (AID 1045); assay type: functional;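 note: HCT116 colon tumor cells with beta catenin knocked out; cells exposed to compound for 60 hours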
Streptococcus = experiment: GAS UMAA2166 growth inhibition – luminescence, BacTiterGlo, counter-screen for streptokinase expression inhibitor project, dose response (AID 1915); assay type: functional, organism-based;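 note: potency for reduction of bacterial viability or growth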
[10] = molecular target: T3, Mannose-6-phosphate isomerase (Homo sapiens, UniProt P34949); experiment: MPI inhibition at elevated mannose 6-phosphate – biochemical, fluorescence intensity, high mannose 6-phosphate, primary screen (AID 1220)
T3 sequence (P34949 whole entry): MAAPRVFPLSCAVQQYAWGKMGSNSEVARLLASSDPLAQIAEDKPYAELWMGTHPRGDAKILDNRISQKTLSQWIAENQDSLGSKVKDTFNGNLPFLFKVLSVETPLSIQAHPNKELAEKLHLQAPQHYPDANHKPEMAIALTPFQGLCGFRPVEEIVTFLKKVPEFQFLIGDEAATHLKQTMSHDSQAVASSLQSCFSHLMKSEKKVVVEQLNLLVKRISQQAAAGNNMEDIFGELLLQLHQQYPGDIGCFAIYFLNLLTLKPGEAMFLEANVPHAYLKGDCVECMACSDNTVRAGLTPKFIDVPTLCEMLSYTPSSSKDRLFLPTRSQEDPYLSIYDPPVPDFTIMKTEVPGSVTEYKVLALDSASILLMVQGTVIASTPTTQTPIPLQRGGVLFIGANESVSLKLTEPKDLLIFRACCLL

[11] = molecular target: T4, Replicative DNA helicase DnaB (Mycobacterium tuberculosis, UniProt P9WMR3); experiment: DnaB intein splicing inhibitors, dose response, biochemical, cell-free fluorescence (AID 449749); assay type: functional
T4 sequence (P9WMR3 whole entry): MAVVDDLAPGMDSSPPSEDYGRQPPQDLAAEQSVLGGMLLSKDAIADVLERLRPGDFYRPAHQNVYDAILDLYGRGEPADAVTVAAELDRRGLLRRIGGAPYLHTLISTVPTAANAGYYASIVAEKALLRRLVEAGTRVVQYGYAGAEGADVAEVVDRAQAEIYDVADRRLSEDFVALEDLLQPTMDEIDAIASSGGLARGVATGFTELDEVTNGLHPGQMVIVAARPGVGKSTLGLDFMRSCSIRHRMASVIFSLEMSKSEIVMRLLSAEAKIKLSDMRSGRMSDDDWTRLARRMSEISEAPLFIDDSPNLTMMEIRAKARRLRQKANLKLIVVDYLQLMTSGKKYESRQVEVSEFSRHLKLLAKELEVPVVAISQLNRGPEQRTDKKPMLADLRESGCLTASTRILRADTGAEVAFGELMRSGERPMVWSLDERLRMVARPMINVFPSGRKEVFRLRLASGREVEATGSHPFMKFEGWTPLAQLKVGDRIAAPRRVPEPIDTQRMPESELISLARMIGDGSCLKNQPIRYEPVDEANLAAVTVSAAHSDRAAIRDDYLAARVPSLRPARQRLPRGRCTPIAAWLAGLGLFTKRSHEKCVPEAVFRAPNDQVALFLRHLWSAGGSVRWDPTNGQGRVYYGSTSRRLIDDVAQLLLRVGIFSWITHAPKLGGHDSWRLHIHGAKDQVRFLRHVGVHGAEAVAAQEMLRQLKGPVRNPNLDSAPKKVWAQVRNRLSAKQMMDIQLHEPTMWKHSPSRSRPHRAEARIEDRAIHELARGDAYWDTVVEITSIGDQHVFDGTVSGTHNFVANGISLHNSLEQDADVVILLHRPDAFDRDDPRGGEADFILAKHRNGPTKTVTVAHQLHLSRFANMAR

BJ = experiment: growth inhibition of engineered Ras-driven BJ cells – cell-based, alamar blue fluorescence, cherrypicked samples, dose response (AID 2631); assay type: functional; settings: Homo sapiens;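 note: confirmatory dose-response assay in RAS-dependent BJ fibroblasts engineered with TERT, LT and ST, with cytotoxicity read by fluorescence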
Protein RecA = molecular target: T5, Protein RecA (Mycobacterium tuberculosis, UniProt P9WHJ3); experiment: Fluorescence Cell-Free Homogeneous Dose Retest to Identify Inhibitors of RecA-Intein Splicing Activity. [Related pubchem assays (depositor defined):AID2097, AID2223, AID489010, AID492950]; assay type: functional
T5 sequence (P9WHJ3 whole entry): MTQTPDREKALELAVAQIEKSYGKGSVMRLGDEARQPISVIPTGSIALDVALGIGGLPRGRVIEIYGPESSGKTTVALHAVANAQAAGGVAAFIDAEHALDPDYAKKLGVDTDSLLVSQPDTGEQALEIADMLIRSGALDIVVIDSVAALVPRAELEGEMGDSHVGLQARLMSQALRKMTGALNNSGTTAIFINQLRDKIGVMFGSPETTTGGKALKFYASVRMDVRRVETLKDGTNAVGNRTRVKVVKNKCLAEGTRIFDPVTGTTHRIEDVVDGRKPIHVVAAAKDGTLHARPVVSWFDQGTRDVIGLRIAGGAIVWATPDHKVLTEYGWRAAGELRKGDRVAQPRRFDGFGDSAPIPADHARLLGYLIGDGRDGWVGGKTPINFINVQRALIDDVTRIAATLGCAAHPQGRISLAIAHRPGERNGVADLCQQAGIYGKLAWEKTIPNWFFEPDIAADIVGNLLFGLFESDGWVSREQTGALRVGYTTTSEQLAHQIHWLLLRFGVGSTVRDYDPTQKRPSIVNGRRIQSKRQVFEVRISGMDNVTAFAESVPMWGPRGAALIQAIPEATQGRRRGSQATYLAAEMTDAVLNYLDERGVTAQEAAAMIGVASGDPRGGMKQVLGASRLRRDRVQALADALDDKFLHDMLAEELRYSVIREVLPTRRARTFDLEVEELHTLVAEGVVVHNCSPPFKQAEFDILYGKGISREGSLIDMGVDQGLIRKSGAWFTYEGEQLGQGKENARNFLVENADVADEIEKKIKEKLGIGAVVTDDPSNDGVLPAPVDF

INS1 = experiment: INS-1E survival protection against cytokine death – cell-based, luminescence, retest, dose response (AID 449756); assay type: functional; settings: Rattus norvegicus;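 note: cell death triggered by IL-1 beta plus TNF-alpha plus IFN-gamma mixture; protective hits raise ATP signal compared with cytokine alone wells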

Row | SMILES | IC50 [1] | IC50 (Insulin-degrading enzyme) | EC50 [2] | EC50 [3] | EC50 [4] | EC50 [5] | EC50 (Streptokinase A) | EC50 [6] | IC50 [7] | EC50 [8] | EC50 [9] | EC50 (Streptococcus) | IC50 [10] | AC50 [11] | EC50 (BJ) | EC50 (Protein RecA) | AC50 (INS1)
1 | Cc1ccc(NC(=O)CSc2nnc(CN3CCOCC3)n2C)cc1C | > 55.7 µM (not active) | > 55.9 µM (not active) | – | – | – | – | – | – | – | – | – | – | – | – | – | – | –
2 | C/N=C1\C(=O)c2ccccc2C(O)=C1N(C(C)=O)c1ccc(Br)cc1 | – | – | 3.59 µM (inconclusive) | 6.44 µM (active) | 11.4 µM (active) | 8.7 µM (active) | 23.9 µM (active) | 0.242 µM (active) | 5.7 µM (active) | 0.688 µM (active) | 0.594 µM (active) | > 150 µM (not active) | > 50 µM (not active) | 11.3 µM (active) | 2.38 µM (active) | 0.795 µM (active) | 0.548 µM (active)
